Patent publication US10047084B2, “Imidazolone derivatives, pharmaceutical compositions and uses thereof” (BEIJING FORELANDPHARMA CO. LTD., priority 2013, dated 2018)

Assays:
Assay type in all cases: cell-based
MV-4-11 = assay: CTG cell survival assay, MV-4-11; details: Homo sapiens, MV4-11, MV-4-11 cells
Excerpt: (§1) 2. CTG Cell Survival Assay:
(§2) ATP is necessarily produced during the metabolic activities of viable cells, and there is a linear relationship between the content of ATP and the number of viable cells. Cell viability assay by CTG chemiluminescence is a general method for detecting the number of viable cells in the culture cells based on this principle. The addition of the CellTiter-Glo (CTG) reagent may induce cell lysis and produce chemiluminescent signals directly proportional to the amount of ATP in the well-plate, and thereby the cell proliferation activity in the well-plate can be measured by the reading values from the chemiluminescence.
(§3) 2.1 Experimental Materials and Instruments:
2.1.1 Experimental Materials: compounds to be tested, cell basal culture medium, RPMI Medium 1640 (Invitrogen, Cat#11875-093), fetal calf serum (FBS): Hyclone FETAL BOVINE SERUM DEFINED (Invitrogen, Cat#SH30070.03), antibiotics: Penicilin Streptomycin (Invitrogen, Cat#15140-122), phosphate buffer (Corning Cellgro, Cat#R21-040-CV), cell digestive solution: 0.25% Trypsin-EDTA (Invitrogen, Cat#25200-056), CTG detection kit: Promega, Cat#G7571, flat-bottom 96-well black bottom plate: NUNC, Cat#165305, T25 culture flask: NUNC, Cat#156367, T75 culture flask: NUNC, Cat#156439
2.2 Experimental Instruments: Carbon Dioxide Incubator, SANYO-MCO-20AIC, Biosafe Cabinet: BSC-1360-LIIA2, Table-Top High-Speed Refrigerated Centrifuge: SorvallST 16R, Microplate Rapid Oscillator: QB-9001, M3 Reader: SpectraMax M3, Microscope: OLYMPUS-CKX41/CKX31.
2.3 Preparation of Solutions and Reagents: Formulation of cell growth medium: RPMI Medium 1640+10% FBS+antibiotics, others: trypsin digestive solution, phosphate buffer (PBS), DMSO, CTG detection kit.
2.4 Experimental Procedure: • 1.4.1 Cell Thawing: Cryogenic vials were removed from the liquid nitrogen container, directly immersed in a water bath at 37° C., and shaked from time to time to thaw. The cryogenic vials were removed from the water bath at 37° C., and transferred to the biosafe cabinet. Their lids were opened, and the cell suspensions were aspirated with pipettes, added to centrifuge tubes, and then added with more than 10 volumes of culture solution, mixed well; centrifuged for 5 min at 1000 rpm; the supernatant was discarded, and medium containing cell growth was added to resuspend cells. All cell suspensions were seeded to the T25 culture flasks and static cultured in an incubator at 37° C.; the culture solution were changed once on the next day, and continued to be cultured. • 2.4.2 Cell Passaging: After cells were grown to logarithmic phase and were 80%-90% confluent, cells were removed and placed in the biosafe cabinet, the old culture solution was discarded, and the cells were wetted and washed with PBS once or twice. An appropriate amount of 0.25% Trypsin-EDTA solution was added to the culture flasks. The flasks were placed in the carbon dioxide incubator at 37° C. for 2-5 min. An appropriate amount of cell growth medium containing 10% PBS was added to terminate the digestion, lightly swished, and transferred to the centrifuge tubes and centrifuged for 5 min at 1000 rpm. The cells were prepare (into cell suspensions for passaging and experimental use. • 2.4.3 Cell Plating • 2.4.3.1 A cell suspension was prepared: After cells were grown to logarithmic phase and were 80%-90% confluent, the cells were removed to the biosafe cabinet, and the old culture solution was discarded, then the cells were wetted and washed with PBS once or twice. An appropriate amount of 0.25% Trypsin-EDTA solution was added to the culture flask. The flask was placed in a carbon dioxide incubator at 37° C. for 2-5 min. An appropriate amount of the cell growth medium containing 10% PBS was added to terminate digestion, and was lightly swished. The solution was transferred to a centrifuge tube, centrifuged for 5 min at 1000 rpm, and counted. […]

SK-BR3/BT474 = assay: CTG cell survival assay, SK-BR3/BT474; details: SK-BR3/BT474 cells
Excerpt: as §1, §2, §3
(§4) 2.4 Experimental Procedure: • 1.4.1 Cell Thawing: Cryogenic vials were removed from the liquid nitrogen container, directly immersed in a water bath at 37° C., and shaked from time to time to thaw. The cryogenic vials were removed from the water bath at 37° C., and transferred to the biosafe cabinet. Their lids were opened, and the cell suspensions were aspirated with pipettes, added to centrifuge tubes, and then added with more than 10 volumes of culture solution, mixed well; centrifuged for 5 min at 1000 rpm; the supernatant was discarded, and medium containing cell growth was added to resuspend cells. All cell suspensions were seeded to the T25 culture flasks and static cultured in an incubator at 37° C.; the culture solution were changed once on the next day, and continued to be cultured. • 2.4.2 Cell Passaging: After cells were grown to logarithmic phase and were 80%-90% confluent, cells were removed and placed in the biosafe cabinet, the old culture solution was discarded, and the cells were wetted and washed with PBS once or twice. An appropriate amount of 0.25% Trypsin-EDTA solution was added to the culture flasks. The flasks were placed in the carbon dioxide incubator at 37° C. for 2-5 min. An appropriate amount of cell growth medium containing 10% PBS was added to terminate the digestion, lightly swished, and transferred to the centrifuge tubes and centrifuged for 5 min at 1000 rpm. The cells were prepare (into cell suspensions for passaging and experimental use. • 2.4.3 Cell Plating • 2.4.3.1 A cell suspension was prepared: After cells were grown to logarithmic phase and were 80%-90% confluent, the cells were removed to the biosafe cabinet, and the old culture solution was discarded, then the cells were wetted and washed with PBS once or twice. An appropriate amount of 0.25% Trypsin-EDTA solution was added to the culture flask. The flask was placed in a carbon dioxide incubator at 37° C. for 2-5 min. An appropriate amount of the cell growth medium containing 10% PBS was added to terminate digestion, and was lightly swished. The solution was transferred to a centrifuge tube, centrifuged for 5 min at 1000 rpm, and counted. […] Secondly, 20 uM of the compound to be tested was diluted with the cell growth medium containing 0.2% DMSO in 3-fold dilution to obtain 9 concentrations, and there were 10 concentration gradients in total. • 2.4.4.3 Addition of the compounds to be tested: the prepared gradient dilution solutions of compounds to be tested were taken and added to the cell culture plate at 100 ul/well; at this point, the maximum concentration of compounds to be tested was 10 uM, and the concentration of DMSO was 0.1%.

PC-3 = assay: CTG cell survival assay, PC-3; details: Homo sapiens, PC-3 cells
Excerpt: as §1, §2, §3, §4

`Cn1c(=O)n([C@H]2CC[C@H](O)CC2)c2c3cc(-c4ccc(-c5ccccc5)nc4)ccc3ncc21` [Example 25, 1-((1r,4r)-4-hydroxycyclohexyl)-3-methyl-8-(6-phenylpyridin-3-yl)-1H-imidazo[4,5-c]quinolin-2(3H)-one] gave an EC50 (MV-4-11) of under 500 nM, an EC50 (SK-BR3/BT474) of under 500 nM and an EC50 (PC-3) of under 100 nM.

With `CC(=O)N[C@H]1CC[C@@H](n2c(=O)n(C)c3cnc4ccc(-c5ccc(-c6cnn(C)c6)nc5)cc4c32)CC1` [Example 33, N-((1s,4s)-4-(3-methyl-8-(6-(1-methyl-1H-pyrazol-4-yl)pyridin-3-yl)-2-oxo-2,3-dihydro-1H-imidazo[4,5-c]quinolin-1-yl)cyclohexyl)acetamide] the EC50 (MV-4-11) was under 500 nM, the EC50 (SK-BR3/BT474) was under 100 nM and the EC50 (PC-3) was under 200 nM.

`Cn1cc(-c2ccc(-c3ccc4ncc5c(c4c3)n([C@H]3CC[C@@H](NS(C)(=O)=O)CC3)c(=O)n5C)cn2)cn1` [Example 34, N-((1s,4s)-4-(3-methyl-8-(6-(1-methyl-1H-pyrazol-4-yl)pyridin-3-yl)-2-oxo-2,3-dihydro-1H-imidazo[4,5-c]quinolin-1-yl)cyclohexyl)methanesulfonamide] was tested, and the EC50 (MV-4-11) was under 200 nM, the EC50 (SK-BR3/BT474) was under 50 nM and the EC50 (PC-3) was under 100 nM.

Compound `Cn1cc(-c2ccc(-c3ccc4ncc5c(c4c3)n([C@H]3CC[C@@H](C(=O)O)CC3)c(=O)n5C)cn2)cn1` [Example 35, (1s,4s)-4-(3-methyl-8-(6-(1-methyl-1H-pyrazol-4-yl)pyridin-3-yl)-2-oxo-2,3-dihydro-1H-imidazo[4,5-c]quinolin-1-yl)cyclohexanecarboxylic acid] has an EC50 (MV-4-11) of under 500 nM and an EC50 (SK-BR3/BT474) of under 200 nM.

`Cn1cc(-c2ccc(-c3ccc4ncc5c(c4c3)n(-c3ccc(C(C)(C)C(N)=O)cc3)c(=O)n5C)cn2)cn1` [Example 40, 2-methyl-2-(4-(3-methyl-8-(6-(1-methyl-1H-pyrazol-4-yl)pyridin-3-yl)-2-oxo-2,3-dihydro-1H-imidazo[4,5-c]quinolin-1-yl)phenyl)propionamide] showed an EC50 (MV-4-11) of 30 nM, an EC50 (SK-BR3/BT474) of 25 nM and an EC50 (PC-3) of 10 nM.

For `Cn1cc(-c2ccc(-c3ccc4ncc5c(c4c3)n(-c3ccc(C(C)(C)C(=O)O)cc3)c(=O)n5C)cn2)cn1` [Example 41, 2-methyl-2-(4-(3-methyl-8-(6-(1-methyl-1H-pyrazol-4-yl)pyridin-3-yl)-2-oxo-2,3-dihydro-1H-imidazo[4,5-c]quinolin-1-yl)phenyl)propionic acid], the EC50 (MV-4-11) was 100 nM.

Compound `Cn1c(=O)n([C@H]2CCN(S(C)(=O)=O)C2)c2c3cc(-c4ccc(-n5cccn5)nc4)ccc3ncc21` [Example 44, (S)-8-(6-(1H-pyrazol-1-yl)pyridin-3-yl)-3-methyl-1-(1-(methanesulfonyl)pyrrolidin-3-yl)-1H-imidazo[4,5-c]quinolin-2(3H)-one] has an EC50 (MV-4-11) of 40 nM, an EC50 (SK-BR3/BT474) of 90 nM and an EC50 (PC-3) of under 50 nM.

For `Cn1cc(-c2ccc(-c3ccc4ncc5c(c4c3)n([C@H]3CCN(S(C)(=O)=O)C3)c(=O)n5C)cn2)nn1` [Example 45, (S)-3-methyl-8-(6-(1-methyl-1H-1,2,3-triazol-4-yl)pyridin-3-yl)-1-(1-(methanesulfonyl)pyrrolidin-3-yl)-1H-imidazo quinolin-2(3H)-one], the EC50 (MV-4-11) was under 20 nM, the EC50 (SK-BR3/BT474) was under 20 nM and the EC50 (PC-3) was under 10 nM.

For `Cn1c(=O)n([C@H]2CCN(S(C)(=O)=O)C2)c2c3cc(-c4ccc(-n5ccnn5)nc4)ccc3ncc21` [Example 46, (S)-8-(6-(1H-1,2,3-triazol-1-yl)pyridin-3-yl)-3-methyl-1-(1-(methanesulfonyl)pyrrolidin-3-yl)-1H-imidazo[4,5-c]quinolin-2(3H)-one], the EC50 (SK-BR3/BT474) was 400 nM.

With `Cn1cnc(-c2ccc(-c3ccc4ncc5c(c4c3)n([C@H]3CCN(S(C)(=O)=O)C3)c(=O)n5C)cn2)n1` [Example 48, (S)-3-methyl-8-(6-(1-methyl-1H-1,2,4-triazol-3-yl)pyridin-3-yl)-1-(1-(methanesulfonyl)pyrrolidin-3-yl)-1H-imidazo[4,5-c]quinolin-2(3H)-one] the EC50 (SK-BR3/BT474) was under 100 nM.

`Cn1cc(-c2ccc(-c3ccc4ncc5c(c4c3)n([C@@H]3CCCN(S(=O)(=O)C4CC4)C3)c(=O)n5C)cn2)cn1` [Example 53, (R)-1-(1-(cyclopropylsulfonyl)piperidin-3-yl)-3-methyl-8-(6-(1-methyl-1H-pyrazol-4-yl)pyridin-3-yl)-1H-imidazo[4,5-c]quinolin-2(3H)-one] was tested, and the EC50 (SK-BR3/BT474) was 100 nM and the EC50 (PC-3) was under 20 nM.

In the case of `Cn1cc(-c2ccc(-c3ccc4ncc5c(c4c3)n([C@@H]3CCCN(S(N)(=O)=O)C3)c(=O)n5C)cn2)cn1` [Example 54, (R)-3-(3-methyl-8-(6-(1-methyl-1H-pyrazol-4-yl)pyridin-3-yl)-2-oxo-2,3-dihydro-1H-imidazo[4,5-c]quinolin-1-yl)piperidine-1-sulfamide], the EC50 (SK-BR3/BT474) is reported as 70 nM.

`Cn1cc(-c2ccc(-c3ccc4ncc5c(c4c3)n([C@@H]3CCCN(S(C)(=O)=O)C3)c(=O)n5C)cn2)nn1` [Example 58, (R)-3-methyl-8-(6-(1-methyl-1H-1,2,3-triazol-4-yl)pyridin-3-yl)-1-(1-(methanesulfonyl)piperidin-3-yl)-1H-imidazo[4,5-c]quinolin-2(3H)-one] was tested, and the EC50 (MV-4-11) was 60 nM.

`Cn1cc(-c2ccc(-c3ccc4ncc5c(c4c3)n(CCNS(C)(=O)=O)c(=O)n5C)cn2)cn1` [Example 63, N-(2-(3-methyl-8-(6-(1-methyl-1H-pyrazol-4-yl)pyridin-3-yl)-2-oxo-2,3-dihydro-1H-imidazo[4,5-c]quinolin-1-yl)ethyl)methanesulfonamide] showed an EC50 (SK-BR3/BT474) of 300 nM.

For `Cn1cc(-c2ccc(-c3ccc4ncc5c(c4c3)n(C3CN(S(C)(=O)=O)C3)c(=O)n5C)cn2)cn1` [Example 64, 3-methyl-8-(6-(1-methyl-1H-pyrazol-4-yl)pyridin-3-yl)-1-(1-(methanesulfonyl)azetidin-3-yl)-1H-imidazo[4,5-c]quinolin-2(3H)-one], the EC50 (SK-BR3/BT474) was 200 nM.
